Test results reported in US20110105417A1, “Drug Conjugates” (The Curators of the University of Missouri, priority 2008, published 2011).

Columns and labels:
MDCK-WT cells = assay: Non-radioactive uptake study of B-10HD-ACV on MDCK-WT cells; type: in vitro ADME, dog; details: 200 μM; for Average uptake: DPBS pH 5.4, 90 minutes; for Relative fold uptake: relative to acyclovir
Description: Non-radioactive uptake studies were performed for the above prodrugs on MDCK-WT cells after growing them for 7 days. The medium was aspirated and the cells were washed 3 times after an interval of 5 minutes each with DPBS pH 5.4. […] Uptake was carried out for 90 minutes. Uptake was terminated using ice cold DPBS pH 5.4. The cells were then washed 2 times using distilled deionized water and lysed overnight at −80° C. with 500 uL of distilled deionized water in each well. The samples were analyzed using LC-MS/MS.

Caco-2 cells monolayer = assay: Non-radioactive cellular uptake study, Caco-2; details: 90 minutes (FIG. 4)
[1] = system: MDCK-MDR1 cell monolayers
Description: The medium was changed everyday after reaching confluence.
The experiments were carried out for 90 minutes.

MDCK-MDR1 cell monolayer = assay: Non-radioactive cellular uptake study, MDCK-MDR1; details: pH 5.5, 90 minutes (FIG. 2)

SMILES	Average uptake (MDCK-WT cells)	Relative fold uptake (MDCK-WT cells)	increase of uptake compared to ACV (Caco-2 cells monolayer)	increase of uptake compared to ACV (MDCK-MDR1 cell monolayer)	also measured
Nc1nc2c(ncn2COCCOC(=O)CCCCCCCCCO)c(=O)[nH]1 [10HD-ACV, 2-((2-amino-6-oxo-1,6-dihydropurin-9-yl)methoxy)ethyl 10-hydroxy decanoate]	199.74 pmoles/mg protein/min	43.73	–	–	–
Nc1nc2c(ncn2COCCO)c(=O)[nH]1 [ACV, 9-(2-hydroxyethoxymethyl)guanine, reference compound]	4.56 pmoles/mg protein/min	1	–	–	–
CCCCCCC(CCCCCCCCCCC(=O)OCCOCn1cnc2c(=O)[nH]c(N)nc21)OC(=O)CCCC[C@@H]1SC[C@@H]2NC(=O)N[C@@H]21 (stereo partly drawn) [B-12HS-ACV, Biotin-12-Hydroxystearicacid-ACV]	–	–	8.3 times	–	–
Nc1nc2c(ncn2COCCOC(=O)CCCC[C@@H]2SC[C@@H]3NC(=O)N[C@@H]32)c(=O)[nH]1 [B-ACV, Biotin-ACV]	–	–	–	–	uptake in the presence of biotin versus in its absence [1]: significantly lesser
CCCCCC[C@H](C/C=C\CCCCCCCC(=O)OCCOCn1cnc2c(=O)[nH]c(N)nc21)OC(=O)CCCC[C@@H]1SC[C@@H]2NC(=O)N[C@@H]21 [B-R-ACV, Biotin-Ricinoleic acid-Acyclovir]	–	–	–	9.5 times	–
CCCCCC[C@@H](O)C/C=C\CCCCCCCC(=O)OCCOCn1cnc2c(=O)[nH]c(N)nc21 [R-ACV, Ricinoleicacid-ACV]	–	–	1.4 times	four	–
